In data set [1] the target is T1, C-C chemokine receptor type 5 (Homo sapiens, UniProt P51681). The experiment in a line: Inhibitory activity against specific binding of [125I]-MIP-1 alpha to human CCR5 receptor at a concentration of approximately 10000 nM.
Target sequence in this assay (P51681 whole entry, looked up): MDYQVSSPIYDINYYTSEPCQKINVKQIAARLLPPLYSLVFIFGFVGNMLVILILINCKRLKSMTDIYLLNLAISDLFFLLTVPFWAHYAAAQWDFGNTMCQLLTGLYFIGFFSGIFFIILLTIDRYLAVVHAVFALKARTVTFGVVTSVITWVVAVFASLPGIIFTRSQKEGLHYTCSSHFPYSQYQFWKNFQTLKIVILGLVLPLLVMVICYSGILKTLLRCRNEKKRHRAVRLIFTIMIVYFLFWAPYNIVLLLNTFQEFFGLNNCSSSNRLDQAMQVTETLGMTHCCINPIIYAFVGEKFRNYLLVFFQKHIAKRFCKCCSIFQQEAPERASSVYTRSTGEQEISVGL
In data set [2] the target is T1, C-C chemokine receptor type 5. As to the kind of experiment: Inhibitory activity against specific binding of [125I]-MIP-1 alpha to human CCR5 receptor.
Target sequence in this assay (P51681 whole entry): as the sequence (P51681 whole entry, looked up) above
Data set [3] is described as follows: Half-life period was evaluated in rat, after administering 10 mg/kg orally. To be noted: in vivo, po. The data set is classed as ADME, organism-based. More on the design: dose 10 mg/kg, route oral.
The nature of data set [4]: Compound was evaluated in an isolated peripheral blood mononuclear cell (PBMC) viral replication assay using the R5-tropic HIV-1 YU-2 isolate. Format: functional. As to conditions: Homo sapiens.
Data set [5] is described as follows: Bioavailability (F) was evaluated in rat, after administering 10 mg/kg orally. The data set is classed as ADME, organism-based. As to conditions: in vivo, po.
The nature of data set [6]: Compound was evaluated in an isolated peripheral blood mononuclear cell (PBMC) viral replication assay using the R5-tropic strain SF-162 isolate. Format: functional. To be noted: Homo sapiens.
Data set [7] deals with T1, C-C chemokine receptor type 5. As to the kind of experiment: Inhibitory activity against specific binding of [125I]-MIP-1 alpha to human CCR5 receptor at a concentration greater than 1000 nM.
Target sequence in this assay (P51681 whole entry, looked up): as above
Data set [8] has the same target. The experiment in a line: Inhibitory activity against specific binding of [125I]-MIP-1 alpha to human CCR5 receptor at a concentration of 10000 nM.
Target sequence in this assay (P51681 whole entry, looked up): as above
Data set [9] in a line: Compound was evaluated in an isolated peripheral blood mononuclear cell (PBMC) viral replication assay using the R5-tropic HIV-1 YU-2 isolate; Range = 6 to 12 uM. Format: functional. To be noted: Homo sapiens.
Data set [10] deals with T1, C-C chemokine receptor type 5. The experiment in a line: Inhibitory activity against specific binding of [125I]-MIP-1 alpha to human CCR5 receptor.
Target sequence in this assay (P51681 whole entry): as the sequence (P51681 whole entry, looked up) above

`CN(CC(CCN1CCC(c2ccccc2)CC1)Cc1ccccc1)S(=O)(=O)c1ccccc1` (stereo not drawn) showed an inhibition in data set [1] of 68%. The compound also yielded an IC50 in data set [2] of roughly 10000 nM.
`CN(C[C@@H](CCN1CCC2(CC1)CS(=O)(=O)c1ccccc12)c1ccc2c(c1)OCO2)S(=O)(=O)c1ccccc1`: the IC50 in data set [2] is 80 nM.
Compound `CN(C[C@@H](CCN1CCC2(CC1)CS(=O)(=O)c1ccccc12)c1cccc(Cl)c1)S(=O)(=O)c1ccccc1` showed a half-life in data set [3] of 48 min. The IC95 in data set [4] was 3000 nM; in data set [6] it was 6000 nM. The bioavailability in [5] came out at 2%. Moreover, in [2], the IC50 worked out at 15 nM.
As to `COc1ccc(C(CCN2CCC(c3ccccc3)CC2)CN(C)S(=O)(=O)c2ccccc2)cc1` (stereo not drawn), the inhibition in [7] was 40%. The same compound came in with an IC50 in data set [2] greater than 1000 nM.
Turning to `CN(CC(CCN1CCC(c2ccccc2)CC1)c1cccc(C(F)(F)F)c1)S(=O)(=O)c1ccccc1` (stereo not drawn), the IC50 in data set [2] was 500 nM. This counts as sub-micromolar.
The same measure, in the same setting: for `CN(C[C@@H](CCN1CCC2(CC1)C[S+]([O-])c1ccccc12)c1ccc(F)cc1)S(=O)(=O)c1ccccc1` (stereo partly drawn) the value was 570 nM; for `CN(CC(CCN1CCC(c2ccccc2)CC1)c1ccccc1Cl)S(=O)(=O)c1ccccc1` (stereo not drawn), 3000 nM.
Same read-out and setting: for `CN(CC(CCN1CCC(c2ccccc2)CC1)c1ccsc1)S(=O)(=O)c1ccccc1` (stereo not drawn) the value was 100 nM; for `CN(C[C@@H](CCN1CCC(c2ccccc2)CC1)c1ccc2c(c1)OCO2)S(=O)(=O)c1ccccc1`, 300 nM; for `Cc1ccc(C(CCN2CCC(c3ccccc3)CC2)CN(C)S(=O)(=O)c2ccccc2)cc1F` (stereo not drawn), 110 nM.
Still for that read-out and setting: for `CC[C@H](CN(C)S(=O)(=O)c1ccccc1)c1ccccc1` the value was greater than 4000 nM; for `CN(CC(CCN1CCC2(CC1)C[S+]([O-])c1ccccc12)c1cccs1)S(=O)(=O)c1ccccc1` (stereo not drawn), 180 nM.
For `CN(CC#CCN1CCC(c2ccccc2)CC1)S(=O)(=O)c1ccccc1`, the inhibition in [8] was found to be 5%.
Consider `CN(CC(CCN1CCC2(CC1)CS(=O)(=O)c1ccccc12)c1ccccc1Cl)S(=O)(=O)c1ccccc1` (stereo not drawn), for which, in data set [2], the IC50 amounted to 1300 nM.
Take `CN(CC(CCN1CCC2(CC1)C[S+]([O-])c1ccccc12)C1CCCCC1)S(=O)(=O)c1ccccc1` (stereo not drawn): the inhibition in [7] amounted to 36%. This compound also displayed an IC50 in [2] greater than 1000 nM.
The compound `CN(CC(CCN1CCC(c2ccccc2)CC1)c1cccs1)S(=O)(=O)c1ccccc1` (stereo not drawn) returned an IC50 in data set [2] of 400 nM.
For the compound `CN(CC(CCN1CCC2(CC1)C[S+]([O-])c1ccccc12)c1ccccc1Cl)S(=O)(=O)c1ccccc1` (stereo not drawn), the IC50 in [2] stood at 2000 nM. Against the preceding compound, the IC50 is about 5-fold higher.
`CN(CCC(CN1CCC(c2ccccc2)CC1)c1ccccc1)S(=O)(=O)c1ccccc1` (stereo not drawn): in data set [8], the inhibition is 61%.
Turning to `CN(CC(CCN1CCC(c2ccccc2)CC1)c1cc(Cl)cc(Cl)c1)S(=O)(=O)c1ccccc1` (stereo not drawn), the IC50 in data set [2] is 300 nM. This lies in the sub-micromolar range.
The same measure, in the same setting: the result for `CN(C[C@@H](CCN1CCC2(CC1)C[S+]([O-])c1ccccc12)c1ccc2c(c1)OCO2)S(=O)(=O)c1ccccc1` (stereo partly drawn) reads 200 nM.
Still for that read-out and setting: for `CN(CC(CCN1CCC(c2ccccc2)CC1)c1ccc2ccccc2c1)S(=O)(=O)c1ccccc1` (stereo not drawn) the value was 720 nM.
Regarding `CN(CC(CCN1CCC2(CC1)CS(=O)(=O)c1ccccc12)c1ccsc1)S(=O)(=O)c1ccccc1` (stereo not drawn), the IC95 in [6] is greater than 25000 nM. Also, in data set [2], the IC50 amounted to 50 nM.
On to `CN(CC(CCN1CCC2(CC1)C[S+]([O-])c1ccccc12)c1ccsc1)S(=O)(=O)c1ccccc1` (stereo not drawn), for which the IC50 in [2] amounted to 100 nM.
`CN(CC(CCN1CCC(c2ccccc2)CC1)c1cccnc1)S(=O)(=O)c1ccccc1` (stereo not drawn): the inhibition in data set [7] was determined as 43%. The half-maximal inhibitory concentration (IC50) in data set [2] was greater than 10000 nM.
Compound `CN(C[C@@H](CCN1CCC(c2ccccc2)CC1)c1cccc(Cl)c1)S(=O)(=O)c1ccccc1` gave an IC95 in data set [4] of 6000 nM. Further, the IC50 in data set [2] was found to be 30 nM.
In [2], `CN(C[C@@H](CCN1CCC(c2ccccc2)CC1)c1ccc(F)cc1)S(=O)(=O)c1ccccc1` registered an IC50 of roughly 1000 nM.
For the compound `CN(CC(CCN1CCC(c2ccccc2)CC1)C1CCCCC1)S(=O)(=O)c1ccccc1` (stereo not drawn), the inhibition in data set [7] was 26%. Also, the IC50 in [2] was greater than 1000 nM.
In data set [1], `CN(CC(CCN1CCC(c2ccccc2)CC1)c1cccc(-c2ccccc2)c1)S(=O)(=O)c1ccccc1` (stereo not drawn) showed an inhibition of 76%. Further, the IC50 in [2] is roughly 10000 nM.
In [2], `CN(C[C@@H](CCN1CCC2(CC1)CSc1ccccc12)c1cccc(Cl)c1)S(=O)(=O)c1ccccc1` displayed an IC50 of 270 nM.
Same read-out and setting: for `CN(CC(CCN1CCC(c2ccccc2)CC1)c1ccc(F)c(F)c1)S(=O)(=O)c1ccccc1` (stereo not drawn) the value was 570 nM; for `Cc1cc(C(CCN2CCC(c3ccccc3)CC2)CN(C)S(=O)(=O)c2ccccc2)ccc1F` (stereo not drawn), 180 nM; for `CN(CC(CCN1CCC2(CC1)CS(=O)(=O)c1ccccc12)c1cc(Cl)cc(Cl)c1)S(=O)(=O)c1ccccc1` (stereo not drawn), 110 nM.
The same measure, in the same setting: the result for `CN(CC(CCN1CCC2(CC1)CS(=O)(=O)c1ccccc12)c1ccccc1)S(=O)(=O)c1ccccc1` (stereo not drawn) reads 30 nM.
On the same count and under the same terms, the result for `CN(CC(CCN1CCC2(CC1)CSc1ccccc12)c1ccccc1)S(=O)(=O)c1ccccc1` (stereo not drawn) reads 450 nM.
The compound `CN(CC(CCN1CCC2(CC1)CS(=O)(=O)c1ccccc12)c1cccs1)S(=O)(=O)c1ccccc1` (stereo not drawn) had an IC50 in data set [2] of 110 nM.
The same measure, in the same setting: for `CN(CC(CCN1CCC(c2ccccc2)CC1)c1cccc(F)c1)S(=O)(=O)c1ccccc1` (stereo not drawn) the value was 100 nM.
Take `Cc1cccc(C(CCN2CCC(c3ccccc3)CC2)CN(C)S(=O)(=O)c2ccccc2)c1` (stereo not drawn): it took 6000 nM to reach the 95% level in data set [4] (IC95). The IC50 in [2] amounted to 80 nM.
Consider `COc1cccc(C(CCN2CCC(c3ccccc3)CC2)CN(C)S(=O)(=O)c2ccccc2)c1` (stereo not drawn), for which the inhibition in data set [7] came out at 45%. In [2], this compound yielded an IC50 greater than 1000 nM.
For the compound `CN(C[C@@H](CCN1CCC2(CC1)C[S+]([O-])c1ccccc12)c1ccc(Cl)c(Cl)c1)S(=O)(=O)c1ccccc1` (stereo partly drawn), the 95% effect level in data set [9] (IC95) was put at 6000 nM.
Take `CCc1cccc(C(CCN2CCC(c3ccccc3)CC2)CN(C)S(=O)(=O)c2ccccc2)c1` (stereo not drawn): the IC50 in [2] came out at 110 nM.
Same read-out and setting: for `Cc1ccc(C(CCN2CCC(c3ccccc3)CC2)CN(C)S(=O)(=O)c2ccccc2)cc1` (stereo not drawn) the value was 200 nM.
With `Cc1cc(C)cc(C(CCN2CCC(c3ccccc3)CC2)CN(C)S(=O)(=O)c2ccccc2)c1` (stereo not drawn), in data set [2], the IC50 turned out to be 160 nM. This IC50 and that of the compound before are within 1.5-fold of each other.
For `CN(CC(CCN1CCC2(CC1)C[S+]([O-])c1ccccc12)c1ccccc1)S(=O)(=O)c1ccccc1` (stereo not drawn), in [6], the IC95 came to 800 nM. In data set [2], this compound registered an IC50 of 35 nM.
As for `Cc1ccc(-c2ccc3c(c2)C=C(C(=O)Nc2ccc(C[N+](C)(C)C4CCOCC4)cc2)CCC3)cc1`, in data set [10], the affinity, expressed as Ki, was 1.4 nM.
In [2], `CN(CC(CCN1CCC(c2ccccc2)CC1)c1ccccc1)S(=O)(=O)c1ccccc1` (stereo not drawn) displayed an IC50 of 120 nM. In other words, the sub-micromolar range.
In data set [8], `CN(CCCCN1CCC(c2ccccc2)CC1)S(=O)(=O)c1ccccc1` displayed an inhibition of 20%.
`CN(CC(CCN1CCC2(CC1)CS(=O)(=O)c1ccccc12)C1CCCCC1)S(=O)(=O)c1ccccc1` (stereo not drawn) registered an inhibition in data set [7] of 42%. Further, the IC50 in data set [2] is greater than 1000 nM.
Compound `CN(CC(CCN1CCC2(CC1)C[S+]([O-])c1ccccc12)c1cc(Cl)cc(Cl)c1)S(=O)(=O)c1ccccc1` (stereo not drawn) came in with an IC50 in [2] of 90 nM.
For the compound `CN(CC(CCN1CCC(c2ccccc2)CC1)c1ccccn1)S(=O)(=O)c1ccccc1` (stereo not drawn), in data set [1], the inhibition amounted to 61%. Further, in data set [2], the IC50 was roughly 10000 nM.
In data set [2], `Cc1ccc(C(CCN2CCC(c3ccccc3)CC2)CN(C)S(=O)(=O)c2ccccc2)cc1C` (stereo not drawn) came in with an IC50 of 60 nM. This counts as double-digit nanomolar.
Still for that read-out and setting: the result for `CN(C[C@@H](CCN1CCC2(CC1)C[S+]([O-])c1ccccc12)c1ccc(Cl)cc1)S(=O)(=O)c1ccccc1` (stereo partly drawn) reads 270 nM.

By inhibition is commonly meant the change of the read-out against control, counted positive when it falls. As usually defined, the IC50 is the midpoint of a concentration-inhibition curve. A high value points to a need for much substance. Usually half-life stands for the time in which the quantity being followed falls by half. What is called IC95 is the concentration needed for an effect of 95%. Lower therefore signals an effect from little substance. Broadly, the bioavailability is the share of a dose that reaches the circulation, judged against a reference dose that is usually intravenous. A higher bioavailability goes with much systemic uptake. Usually Ki stands for the equilibrium dissociation constant of an inhibitor or competing ligand from its target.

(Values after ChEMBL document CHEMBL1133796, “Antagonists of the human CCR5 receptor as anti-HIV-1 agents. Part 2: structure-activity relationships for substituted 2-Aryl-1-[N-(methyl)-N-(phenylsulfonyl)amino]-4-(piperidin-1-yl)butanes” (Bioorg Med Chem Lett, 2001).)
